Experimental data from patent US20150310826A1, “DISPLAY DEVICE AND PHOTOTHERAPY METHOD USING THE SAME” (Samsung Display Co., Ltd., priority 2014, published 2015).
Each block holds one compound with its values, some of them ahead of it.

Legend:
B16F10 melanocyte = test: Suppression of generation of melanin to the B16F10 melanocyte; type: cell-based, mouse; details: 72 hours; red light 20 μW/cm^2; absorbance at 405 nm
Experimental: The B16F10 melanocyte is a cell strain derived from a mouse, and is a cell secreting a black pigment that is called melanin. The B16F10 melanocyte used in the present Experimental Example was distributed from ATCC (American Type Culture Collection™), and used.
The B16F10 melanocyte was divided in the 2×10^6 concentration for each well on the 6-well plate, attached, and cultivated by irradiating red light in the culture medium of Experimental Example 1 for 72 hours. After cultivation for 72 hours, the cells were separated by trypsin-EDTA (ethylenediaminetetraacetic acid), the number of cells was measured, and centrifugation was performed to collect the cells. Quantification of melanin in the cell was performed by modifying the Lotan's method. […] Melanin extracted by adding 1N NaOH (10% dimethyl sulfoxide (DMSO)) to the filtrate of the cell obtained by centrifugation was dissolved, absorbance of melanin was measured by the microplate reader at 405 nm, and melanin was quantified to measure the melanin generation hindrance ratio (%) of the sample. […]
The melanin generation hindrance ratio (%) of the B16F10 melanocyte was calculated by the following Equation 4, and the result is described in the following Table 4. […]

[1] = tested on: proinflammatory cytokine (1L-1α); test: Suppression of proinflammatory cytokine expression by irradiation of ultraviolet rays (ELISA); type: cell-based, human; details: after 10 mJ/cm^2 ultraviolet ray B; red light for 72 hours at 5 or 47.5 μW/cm^2
Experimental: 5×10^4 keratinocytes separated from the human epidermal tissue were put at a time on the 24-well test plate, and attached for 24 hours. Each well was washed by the PBS once, and 500 μl of the PBS was put on each well. After 10 mJ/cm^2 of ultraviolet rays were irradiated on the keratinocytes by using the ultraviolet ray B lamp, the PBS was taken out, and 350 μl of the cell cultivation medium (DMEM to which the […] was not added) was added. In addition, red light was irradiated in the culture medium of Experimental Example 1 for 72 hours to perform cultivation. 150 μl of cultivation supernatant was sampled to quantify proinflammatory cytokine (1L-1α) and thus judge the expression suppression effect of proinflammatory cytokine. The amount of proinflammatory cytokine was quantified by using the enzyme-linked immunosorbent assay, and ketoprofen known as the proinflammatory cytokine suppression material was used as the positive control group. The expression suppression ratio (%) of proinflammatory cytokine was calculated by the following Equation 7, and the result is described in the following Table 6.
Expression suppression ratio of […]

MMP-2 = test: Suppression of generation of collagenase MMP-2 in fibroblast; type: cell-based, human; details: fibroblast supernatant; three days; red light 47.5 μW/cm^2; TGF-β 10 ng/ml
Experimental: (§1) The fibroblast (Korean Cell Line Bank, Korean) that was the human normal skin cell was inoculated on the 48-well microplate (Nunc™, Denmark) so that the number of cells was 1×10^6 for each well, cultivated in the DMEM medium (Sigma™, USA) under the condition of 37° C. for 24 hours, and cultivated by irradiating red light for three days in the culture medium of Experimental Example 1. In order to perform the comparative experiment, red light having the similar wavelength was irradiated for three days to perform cultivation, and TGF-β (10 ng/ml) known to have the effect of suppressing generation of collagenase MMP-1,2 was used as the positive control group. Cultivation was further performed for 48 hours in the culture medium having no light irradiation function to use the resulting fibroblast as the control group.
(§2) After cultivation, the supernatant liquid of each well was collected to measure the amount (ng/ml) of newly synthesized MMP-1,2 by using the MMP-1,2 analysis kit (Amersham™, USA), the MMP generation suppression ratio (%) was calculated according to the following Equation 2, and the result is described in the following Table 2.
(§3) MMP generation rate(%)=(Amount of MMP of the experimental group/Amount of MMP of the control group)×100 (Equation 2)

[2] = tested on: procollagen type IC-peptide (PICP); test: Improvement of synthesis of collagen (PICP) in fibroblast; type: cell-based, human; details: red light 47.5 μW/cm^2 for 24 hours or 72 hours; TGF-β 10 ng/ml
Experimental: The fibroblast that was the human normal […] cell was inoculated on the 48-well microplate so that the number of cells was 1×10^6 for each well, cultivated in the DMEM medium for 24 hours, and cultivated by irradiating red light in a predetermined quantity for one day and three days in the culture medium of Experimental Example 1. In order to perform the comparative experiment, TGF-β (10 ng/ml) known to have the collagen synthesis improvement effect was used as the positive control group, and cultivation was further performed for 48 hours in the culture medium having no red light irradiation function to use the resulting fibroblast as the control group.
After cultivation, the supernatant liquid of each well was collected to measure the amount of procollagen type IC-peptide (PICP) by using the collagen kit (Takara™, Japan) and thus measure the amount of synthesized collagen. The collagen biosynthesis increase ratio (%) was calculated according to the following Equation 3, and the result is described in the following Table 3.
Collagen biosynthesis increase ratio(%)=(Amount of collagen of the experimental group/[…])×100 (Equation 3)

MMP-1 = test: Suppression of generation of collagenase MMP-1 in fibroblast; type: cell-based, human; details: fibroblast supernatant; three days; red light 47.5 μW/cm^2; TGF-β 10 ng/ml
Experimental: as §1, §2, §3

HaCaT keratinocyte = test: Cell regeneration, MTT assay on HaCaT keratinocyte; type: cell-based; details: three days cultivation, red light 47.5 μW/cm^2, TGF-β 10 ng/ml
Experimental: On the 24-well plate, the HaCaT keratinocyte (German Cancer Research Institute, Germany) was inoculated into the DMEM (Dulbecco™ Modified Eagle′ Medium) to which the 10% FBS (fetal bovine serum) was added in the density of 2×10^5 cells/well, and cultivated for one day in the humidified culture medium of 37° C. and 5% CO2. After exchanging with the serum-free DMEM, red light was irradiated for three days in the culture medium in which the aforementioned display device was installed to perform cultivation. In order to perform the comparative experiment, red light having the similar wavelength was irradiated for three days to perform cultivation, and TGF-β (transforming growth factor beta) (10 ng/ml), which is the material known to have a cell regeneration effect, was used as the positive control group. Further, cultivation was performed for three days in the culture medium having no light irradiation function to use the resulting keratinocyte as the control group. The degrees of generation of the cell were compared and evaluated by using the MTT (Microculture Tetrazolium) assay method, and the experimental result is described in the following Table 1.
In general, regeneration of the skin cell is measured by the activation rate of the cell, and the activation rate of the cell is proportional to the absorbance (at 570 nm) in Table 1. […]

Compound: Oc1ccc(O)cc1 [Comparative Example 10, hydroquinone]
Melanin generation hindrance ratio (%) (B16F10 melanocyte): 73.1%

Compound: OC[C@H]1O[C@@H](Oc2ccc(O)cc2)[C@H](O)[C@@H](O)[C@@H]1O [Comparative Example 11, arbutin]
Melanin generation hindrance ratio (%) (B16F10 melanocyte): 52.3%

Compound: CC(C(=O)O)c1cccc(C(=O)c2ccccc2)c1 (stereo not shown) [compound 12, ketoprofen]
Expression suppression ratio of proinflammatory cytokine (%) [1]: 41.1%

MMP-2 generation suppression ratio (%) (MMP-2): 76.2% | MMP-1 generation suppression ratio (%) (MMP-1): 75.1%
Compound: TGF-β (transforming growth factor beta) [compound 3]
Collagen biosynthesis increase ratio (%) [2]: 24.7% | Absorbance (at 570 nm) (HaCaT keratinocyte): 1.423
